Test results: PMC9474773, “PARP targeted Auger emitter therapy with [^125I]PARPi-01 for triple-negative breast cancer” (EJNMMI Research, 2022)
“And” between values parts separate entries of the source, which are not always exact repeats. Equal values may be shown once. Blank lines part the entries; values can stand above or below the compound they belong to.

Assays:
[1] = design: method as in PMID 27169564; details: cited from earlier work
[2] = tested on: cytochrome P450 (CYP450); design: method as in PMID 28736501, PMID 29717476; details: cited from earlier work
[3] = design: method as in PMID 29630818; details: cited from earlier work
[4] = design: method as in PMID 34318678; details: intracellular distribution not considered; cited from earlier work
[5] = tested on: subcutaneous MDA-MB-231 xenografts; assay: Ex vivo biodistribution by gamma counter; assay type: in vivo, NOD/SCID mice
Procedure: Female NOD/SCID mice at 5–6 weeks of age (Janvier, France) was used for developing subcutaneous TNBC tumour. Animals were housed in 20–24 °C in a 12 h day light cycle. For each mouse, 3 × 10^6 MDA-MB-231 cells were suspended in a 1:1 (volume) mixture of Culture media: Matrigel® matrix (Corning®, Product No: 356237). Mice were inoculated with this cell suspension (max 200 µl) subcutaneously in the right flank. Tumour growth was monitored daily using calliper measurements. Tumour volume was calculated daily according to the formula Tumourvolume=TumourLength×Tumourbreadth^2×0.52
Upon reaching of a tumour volume of 500 mm^3, animals were proceeded for experiments. For biodistribution study animals were administered with [^123I]PARPi-01 (n = 3). For therapy studies animals were randomized for control (n = 10) or [^125I]PARPi-01 administration (n = 10). Randomisation was done based on equivalent distribution of tumour volumes. In addition to the daily calliper measurements image analysis of CT based tumour volumes was blinded to avoid bias. Animals were sacrificed upon completion of biodistribution study or upon reaching a humane end point for the therapy study. Humane end point is determined as reaching of either of the following conditions: 15 mm tumour diameter, 1500 mm^3 tumour volume, or development of ulcers/ascites.
For biodistribution, animals imaged at 4 h p.i. were killed 24 h p.i., while the ones scanned 24 h p.i. were killed 5 days p.i.. Subsequently, organs were excised, weighed, and assayed for radioactivity in a gamma counter. Mean tumour and organ uptake was determined from decay-corrected tissue radioactivity normalized to injected dose and tissue sample weight (%ID/g tissue wet weight).

[6] = tested on: subcutaneous MDA-MB-231 tumours; assay: Small animal SPECT/CT imaging; assay type: in vivo, NOD/SCID mice
Procedure: Imaging was performed with a small animal SPECT/CT system (X-Cube and γ-Cube, Molecubes, Gent, Belgium). Mice bearing subcutaneous MDA-MB-231 tumours upon reaching tumour volume of 500 mm^3 were intravenously administered with [^123I]PARPi-01 (9.3 ± 2.7 MBq) via lateral tail-vein using a catheter under 1.5 to 2.5% isoflurane anaesthesia in oxygen at 0.8 L/min. [^123I]PARPi-01 was prepared by diluting the tracer in 0.9% NaCl to a total volume of 100 μL. Administered dose was calculated by subtraction of decay-corrected syringe activity post-injection from pre-injection activity. The mice were scanned either at 4 h or at 24 h post injection (p.i.). The CT acquisition settings were as follows: default high resolution protocol, 440 uA, 50 kVp, 32 ms exposure time, and 1080° rotation in a spiral mode with 960 exposures/360°; the duration of each CT scan was 5 min. A SPECT scan was initiated at the end of each CT scan. The SPECT acquisition settings were as follows: 7-headed camera equipped with a general-purpose collimator with 28 pinholes (i.e., 0.75 mm apertures and a radius of rotation of 20 mm), helical scan with 82 bed positions; the total duration of each SPECT scan was 30 min. Both CT and SPECT axial fields of view were selected at 105 mm. During the scans, the isoflurane concentration was adapted to achieve a respiratory rate between 75 and 50 breaths per minute. […]

[7] = 24 h p.i., i.v., decay-corrected, n = 3

SMILES: O=C(c1cc(Cc2n[nH]c(=O)c3ccccc23)ccc1F)N1CCN(C(=O)C2CC2)CC1 [Olaparib]
dose limiting toxicities [1]: anaemia, thrombocytopenia, and neutropenia | fraction metabolised in liver by CYP450 [2]: 84% | Log Poct [3]: 1.95

SMILES: O=C(c1cccc([123I])c1)N1CCN(C(=O)c2cc(Cc3n[nH]c(=O)c4ccccc34)ccc2F)CC1 [[^123I]MAPi]
estimated absorbed dose in liver [4]: 0.0044 Gy/MBq | estimated absorbed dose in thyroid [4]: 0.0041 Gy/MBq

Tumour: Blood Ratio ([5]; 24 h p.i.): 1.3 | liver uptake [5, 7]: 2.5 %ID/g and 2.49 ± 0.6 %ID/g | tumour uptake [5, 7]: 0.2 %ID/g | activity in organs of animals sacrificed at 5 d p.i. ([5]; 5 d p.i.): no quantifiable activity | clearance pathway ([6]; 4 h and 24 h p.i.): hepatobiliary clearance | deiodination in vivo (thyroid uptake) ([6]; 24 h p.i.): strong deiodination
SMILES: O=C(c1ccc([123I])cc1)N1CCN(C(=O)c2cc(Cc3n[nH]c(=O)c4ccccc34)ccc2F)CC1 [[^123I]PARPi-01]
